Assay results from patent US11884647B2, “Compounds and methods for targeting pathogenic blood vessels” (THE REGENTS OF THE UNIVERSITY OF CALIFORNIA, priority 2019, dated 2024).

Each molecule was assayed on tumor endothelial cells (LL/2 lung cancer tumor) (assay: Lung LL2 ex vivo model of tumor angiogenesis). Settings: Lung LL2 ex vivo; Conc. 20 μm; (24 hrs).
Format: cell-based, mouse
Procedure: This example describes a procedure to prepare a primary tumor angiogenesis model for assessing the efficacy of anti-cancer candidate agents.
1. The day before the experiment, spray all necessary tools with 70% ethanol and sterilize them under UV light overnight, including blade, dissecting and micro-dissecting scissors and […]. Place 24-well dishes at 4° C. to pre-chill plates and thaw Matrigel 24 hours before tumor dissection.
2. Spray 70% ethanol on working bench. Prepare two sterile petri dishes with 10 mL sterile PBS. Steps 3 and 4 are for mouse tumor models. For fresh human tumor, directly go to step 5.
3. Euthanize the tumor-bearing mice. Spray 70% ethanol on the mouse and remove the tumor using sterilized dissecting tools (avoid the fur). Rinse the tumor in petri dish with sterile PBS to remove ethanol and fur. Transfer the tumor to a new petri dish with PBS for dissection. Place the dish on ice.
4. Using pre-chilled sterile pipet tips to seed regular Matrigel in 24 well plates on ice. Matrigel (30 μL) is dropped in the middle of each well without touching the edge of the well (avoid introducing bubbles if possible).
5. Cut the tumor in halves using the sterile blade. Identify and isolate healthy tumor tissue that is not necrotic and is within the tumor capsule. Cut the healthy tumor tissue into small pieces. For instance, a suitable size for the tumor tissue is 0.5 mm (H)×0.5 mm (L)×0.3 mm (D) with a total volume of 0.075 mm^3.
6. Gently transfer and embed each tumor piece in the Matrigel drop in the 24-well plate. Place the embedded piece in the bottom and middle of each Matrigel drop. Keep the plate on ice all the time.
7. After seeding the tumor pieces, plates are incubated in a 37° C. cell culture incubator without medium for 10 minutes in order for the Matrigel to solidify.
8. Endothelial Growth Medium (0.5 mL) is added to each well and incubated at 37° C. with 5% CO2. Wait until the new endothelial cells have grown out of the tumor or are larger than 3 mm in diameter until treatment. This usually takes 4 days for the LL2 Lewis lung cancer model and 7 days for the CT26 colon cancer model. For human tumor models, the growth time is typically 2-3 weeks, depending on the tumor type. Media is changed every 4 days during prolonged culture. Typically, when the tumor tissue grows to 2 mm in diameter, it is good for drug testing. A size of about 3 mm in diameter can make visualization easier.
9. When the assay is ready to be analyzed for cell death (e.g., 48 hours after drug addition), prepare the dye mixture by mixing 6 μL of green dye to stain live cells (5 mg/mL Fluorescein diacetate or FDA in DMSO) with 30 μL of red dye (2.5 mg/mL Propidium iodide or PI in PBS) to stain dead cells in an Eppendorf tube. The FDA dye needs to be stored frozen in a −20° C. freezer because it has a labile ester bond.
10. Add 1 μL of the dye mixture to each well of the 24-well dish. It is usually performed one 24-well dish at a time given the amount of time needed to take pictures (the green dye is not as stable in the cells in the long term).
11. Gently rock the dish a few times to mix the dye with the media in the wells and incubate the dish at 37° C. for 10 min (too long incubation can make the green signal too intense).
12. Wash each well with 0.5 mL of sterile PBS and then add 0.5 mL of phenol red free SFM to each well. Alternatively 0.5 mL of regular Endothelial Cell Growth Media can be added to each well if this well needs to be continuously maintained after the experiment.
13. Look through all wells on an inverted microscope using the 2× objective lens to observe morphological changes.
14. Taking pictures in the red and green channels would allow not only the recording of the result but also more accurate quantitation of the result. To take pictures for all the wells, first pick a well that has robust red and green signals. […]
For CCCCCCCCCCOc1ccc(S(=O)(=O)c2cnc3ccc([S+](C)[O-])cc3c2N2CCC(N3CCC(N4CCOCC4)CC3)CC2)cc1 (stereo not shown) [compound 286, 4-(1′-(3-((4-(decyloxy)phenyl)sulfonyl)-6-(methylsulfinyl)quinolin-4-yl)-[1,4′-bipiperidin]-4-yl)morpholine], the “Cell death (24 hrs)” value was 0% and the “Morphology observations (24 hrs)” value was 0.

Same assay, conditions: Lung LL2 ex vivo; Conc. 20 μm; drug treatment two days
Molecule CCCCCCCOc1ccc(S(=O)(=O)c2cnc3ccc(SC)cc3c2N2CCN(C3CCN(C)CC3)CC2)cc1 [compound 273, 3-((4-(heptyloxy)phenyl)sulfonyl)-4-(4-(1-methylpiperidin-4-yl)piperazin-1-yl)-6-(methylthio)quinoline] has a Cell death of 60%. COc1ccc(S(=O)(=O)c2cnc3ccc(OC(F)(F)F)cc3c2N2CCC(N3CCC(O)CC3)CC2)cc1 [compound 113, 1′-(3-((4-methoxyphenyl)sulfonyl)-6-(trifluoromethoxy)quinolin-4-yl)-[1,4′-bipiperidin]-4-ol] was tested, and the Cell death was 10%.

Same assay, conditions: Lung LL2 ex vivo; Conc. 40 μm; (rim)
With CCCCCCCOc1ccc(S(=O)(=O)c2cnc3ccc(SC)cc3c2N2CCC(N3CCC(O)CC3)CC2)cc1 [compound 223, 1′-(3-((4-(heptyloxy)phenyl)sulfonyl)-6-(methylthio)quinolin-4-yl)-[1,4′-bipiperidin]-4-ol] the “Cell death (rim)” value was 30%.

Same assay, conditions: Lung LL2 ex vivo; Conc. 40 μm; drug treatment two days
With CCCCOc1ccc(S(=O)(=O)c2cnc3ccc(SC)cc3c2N2CCCN(CC3(O)CCCC3)CC2)cc1 [compound 354, 1-((4-(3-((4-butoxyphenyl)sulfonyl)-6-(methylthio)quinolin-4-yl)-1,4-diazepan-1-yl)methyl)cyclopentan-1-ol] the Cell death was 0%.

Same assay, conditions: Mus musculus, Endothelial cell, 48 h, read-out: Cell death
With COc1ccc(S(=O)(=O)c2cnc3cc(OC)c(OC)cc3c2N2CCC(O)(c3ccccc3)CC2)cc1 [compound 308, 1-(6,7-dimethoxy-3-((4-methoxyphenyl)sulfonyl)quinolin-4-yl)-4-phenylpiperidin-4-ol] the cytotoxicity at 40 µM was 20%. With CCOC(=O)c1ccc2ncc(S(=O)(=O)c3ccc(OC)cc3)c(-n3ccnn3)c2c1 [compound 184, ethyl 3-((4-methoxyphenyl)sulfonyl)-4-(1H-1,2,3-triazol-1-yl)quinoline-6-carboxylate] the cytotoxicity at 10 µM was 5%. COc1ccc(S(=O)(=O)c2cnc3cc(OC)c(OC)cc3c2N2CCC(N3CCCCC3)CC2)cc1OC [compound 122, 4-([1,4′-bipiperidin]-1′-yl)-3-((3,4-dimethoxyphenyl)sulfonyl)-6,7-dimethoxyquinoline] showed a cytotoxicity at 20 µM of 10%. In the case of CCCCCCCCCCOc1ccc(S(=O)(=O)c2cnc3ccc([S+](C)[O-])cc3c2N2CCC(N3CCC(N4CCCCC4)CC3)CC2)cc1 (stereo not shown) [compound 269, 4-([1,4′:1′,4″-terpiperidin]-1″-yl)-3-((4-(decyloxy)phenyl)sulfonyl)-6-(methylsulfinyl)quinoline], the cytotoxicity at 20 µM is reported as 100%. For COc1ccc(S(=O)(=O)c2cnc3ccc(OC(F)(F)F)cc3c2NCCO)cc1OC [compound 73, 2-((3-((3,4-dimethoxyphenyl)sulfonyl)-6-(trifluoromethoxy)quinolin-4-yl)amino)ethan-1-ol], the cytotoxicity at 40 µM was 10%. Work on CCCCCCCCCCOc1ccc(S(=O)(=O)c2cnc3ccc([S+](C)[O-])cc3c2N2CCC(N3CCCC(O)C3)CC2)cc1 (stereo not shown) [compound 265, 1′-(3-((4-(decyloxy)phenyl)sulfonyl)-6-(methylsulfinyl)quinolin-4-yl)-[1,4′-bipiperidin]-3-ol] yielded a cytotoxicity at 10 µM of 20%. In the case of COc1ccc(S(=O)(=O)c2cnc3ccc(C(=O)N(C)C)cc3c2N2CCCN(CC(=O)N(C)C)CC2)cc1 [compound 333, 4-(4-(2-(dimethylamino)-2-oxoethyl)-1,4-diazepan-1-yl)-3-((4-methoxyphenyl)sulfonyl)-N,N-dimethylquinoline-6-carboxamide], the cytotoxicity at 40 µM is reported as 0%. CCCCCCCOc1ccc(S(=O)(=O)c2cnc3ccc(SC)cc3c2N2CCC(N3CCCC(O)C3)CC2)cc1 (stereo not shown) [compound 247, 1′-(3-((4-(heptyloxy)phenyl)sulfonyl)-6-(methylthio)quinolin-4-yl)-[1,4′-bipiperidin]-3-ol] showed a cytotoxicity at 20 µM of 60%. CCCCCCCOc1ccc(S(=O)(=O)c2cnc3ccc([S+](C)[O-])cc3c2N2CCN(C3CCN(Cc4ccccc4)C3)CC2)cc1 (stereo not shown) [compound 278, 4-(4-(1-benzylpyrrolidin-3-yl)piperazin-1-yl)-3-((4-(heptyloxy)phenyl)sulfonyl)-6-(methylsulfinyl)quinoline] was tested, and the cytotoxicity at 10 µM was 50%. CCCCCCCCCCCCOc1ccc(S(=O)(=O)c2cnc3ccc([S+](C)[O-])cc3c2N2CCC(N3CCC(N4CCCCC4)CC3)CC2)cc1F (stereo not shown) [compound 363, 4-([1,4′:1′,4″-terpiperidin]-1″-yl)-3-((4-(dodecyloxy)-3-fluorophenyl)sulfonyl)-6-(methylsulfinyl)quinoline] was tested, and the cytotoxicity at 20 µM was 30%. With CCCCCCCCCCOc1ccc(S(=O)(=O)c2cnc3ccc([S+](C)[O-])cc3c2N2CCCN(CCN3CCCCC3)CC2)cc1 (stereo not shown) [compound 266, 3-((4-(decyloxy)phenyl)sulfonyl)-6-(methylsulfinyl)-4-(4-(2-(piperidin-1-yl)ethyl)-1,4-diazepan-1-yl)quinoline] the cytotoxicity at 10 µM was 5%. CCOC(=O)c1ccc2ncc(S(=O)(=O)c3ccc(CC)cc3)c(-n3nnc4ccccc43)c2c1 [compound 133, ethyl 4-(1H-benzo[d][1,2,3]triazol-1-yl)-3-((4-ethylphenyl)sulfonyl)quinoline-6-carboxylate] showed a cytotoxicity at 20 µM of 10%. Molecule COc1ccc(S(=O)(=O)c2cnc3cc(OC)c(OC)cc3c2N2CCCN(C3CCS(=O)(=O)CC3)CC2)cc1 [compound 330, 4-(4-(6,7-dimethoxy-3-((4-methoxyphenyl)sulfonyl)quinolin-4-yl)-1,4-diazepan-1-yl)tetrahydro-2H-thiopyran 1,1-dioxide] has a cytotoxicity at 40 µM of 50%. In the case of CCCCCCCCCCOc1ccc(S(=O)(=O)c2cnc3ccc([S+](C)[O-])cc3c2N2CCC(N3CCCN(C)CC3)CC2)cc1 (stereo not shown) [compound 267, 3-((4-(decyloxy)phenyl)sulfonyl)-4-(4-(4-methyl-1,4-diazepan-1-yl)piperidin-1-yl)-6-(methylsulfinyl)quinoline], the cytotoxicity at 10 µM is reported as 5%. CCCCCCCOc1ccc(S(=O)(=O)c2cnc3ccc([S+](C)[O-])cc3c2N2CCN(CCN3CCCC3)CC2)cc1 (stereo not shown) [compound 276, 3-((4-(heptyloxy)phenyl)sulfonyl)-6-(methylsulfinyl)-4-(4-(2-(pyrrolidin-1-yl)ethyl)piperazin-1-yl)quinoline] gave a cytotoxicity at 20 µM of 100%. With COc1ccc(S(=O)(=O)c2cnc3ccc([S+](C)[O-])cc3c2NN2CCN(C)CC2)cc1 (stereo not shown) [compound 227, 3-((4-methoxyphenyl)sulfonyl)-N-(4-methylpiperazin-1-yl)-6-(methylsulfinyl)quinolin-4-amine] the cytotoxicity at 40 µM was 10%. Work on CCc1ccc(S(=O)(=O)c2cnc3ccc(OC(F)(F)F)cc3c2Nc2ccncc2)cc1 [compound 107, 3-((4-ethylphenyl)sulfonyl)-N-(pyridin-4-yl)-6-(trifluoromethoxy)quinolin-4-amine] yielded a cytotoxicity at 20 µM of 0%. For COc1ccc(S(=O)(=O)c2cnc3cc(OC)c(OC)cc3c2N2CCC(N3CCCC3=O)CC2)cc1 [compound 321, 1-(1-(6,7-dimethoxy-3-((4-methoxyphenyl)sulfonyl)quinolin-4-yl)piperidin-4-yl)pyrrolidin-2-one], the cytotoxicity at 40 µM was 40%. In the case of CCOC(=O)c1ccc2ncc(S(=O)(=O)c3ccc(OC)cc3)c(-n3cncn3)c2c1 [compound 183, ethyl 3-((4-methoxyphenyl)sulfonyl)-4-(1H-1,2,4-triazol-1-yl)quinoline-6-carboxylate], the cytotoxicity at 10 µM is reported as 100%.
